Source: patent US5262431A, “Prolinal derivatives and pharmaceutical compositions thereof” (Ono Pharmaceutical Co., Ltd., priority 1986, dated 1993)
Peptide text beside a SMILES is read from it. * marks the point of attachment. Cbz = O=C(OCc1ccccc1)*; CH2Cl = ClC*

Target: T1, prolyl endopeptidase (Bos taurus, UniProt Q9XTA2)
T1 construct: prolyl endopeptidase which was purified from bovine brain; from tissue; host or cells: bovine brain
T1 sequence (Q9XTA2 1-710): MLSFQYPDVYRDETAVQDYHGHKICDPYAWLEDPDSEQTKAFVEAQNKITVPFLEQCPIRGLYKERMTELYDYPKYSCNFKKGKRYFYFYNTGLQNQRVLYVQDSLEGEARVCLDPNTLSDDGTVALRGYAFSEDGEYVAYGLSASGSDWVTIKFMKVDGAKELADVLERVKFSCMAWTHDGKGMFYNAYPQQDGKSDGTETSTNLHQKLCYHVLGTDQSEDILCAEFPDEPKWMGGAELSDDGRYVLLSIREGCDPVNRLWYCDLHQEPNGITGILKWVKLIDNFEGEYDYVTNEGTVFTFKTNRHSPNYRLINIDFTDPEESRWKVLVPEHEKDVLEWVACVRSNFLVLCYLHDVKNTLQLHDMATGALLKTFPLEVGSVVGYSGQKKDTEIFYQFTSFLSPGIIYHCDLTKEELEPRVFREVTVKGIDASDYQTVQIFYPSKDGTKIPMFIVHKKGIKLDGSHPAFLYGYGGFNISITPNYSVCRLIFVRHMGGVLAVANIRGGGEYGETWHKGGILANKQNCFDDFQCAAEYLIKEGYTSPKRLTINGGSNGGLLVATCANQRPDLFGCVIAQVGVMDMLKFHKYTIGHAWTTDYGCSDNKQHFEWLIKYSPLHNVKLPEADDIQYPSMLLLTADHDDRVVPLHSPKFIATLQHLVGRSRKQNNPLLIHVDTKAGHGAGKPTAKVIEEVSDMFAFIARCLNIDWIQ
Experiment: Prolyl endopeptidase inhibitory activity in vitro
Format: biochemical, bovine
Conditions: not given
Protocol: Prolyl Endopeptidase Inhibitory Activity In Vitro
Inhibitory activity of prolyl endopeptidase in vitro was measured by the following test system.
A mixed solution of 20 mM tris-HCl buffer (pH 7.5; 935 μl; containing 10 mM EDTA and 10 mM mercaptoethanol), a solution of a compound of the present invention In DMSO (10 μl) and a solution of prolyl endopeptidase which was purified from bovine brain (0.13 unit; prepared by the method described in J. Biochem., 94, 1179 (1983)) in tris-HCl buffer (15 μl) was preincubated for 15 mins at 37° C.
To the solution, 5 mM of N-benzyloxycarbonyl-glycyl-prolyl-p-nitroanilide (40 μl) in a mixture of 40% dioxane-60% water was added. The solution was incubated for 1 min at the same temperature.
Optical absorption (a1) at 405 nm of the solution, and optical absorption (a2) at 405 nm of the solution after more 30 mins' incubation at 37° C. were measured.
Optical absorptions (b1 and b2) of the solutions using DMSO instead of the solution of the compound of the present invention were also measured.
Inhibitory ratio was calculated by the following expression and IC50 (required concentration for 50% inhibition) was obtained (See Protein, Nucleic acid and Enzyme 25(6), 513, 1980.). [formula]

Which IC50 does the source give for CC(C)C(CCCc1ccccc1)C(=O)N1CCC[C@H]1C=O (stereo partly drawn) [1(a), N-(2-isopropyl-5-phenyl-pentanoyl)-L-prolinal] here?
The IC50 was 370 nM.

For CC(C)C(CCCCc1ccccc1)C(=O)N1CCC[C@H]1C=O (stereo partly drawn) [Example 1, N-(2-Isopropyl-6-Phenylhexanoyl)-L-Prolinal], which IC50 is on record?
Its IC50 is 280 nM.

With CC(C)C(CCCCCCCc1ccccc1)C(=O)N1CCC[C@H]1C=O (stereo partly drawn) [1(d), N-(2-isopropyl-9-phenyl-nonanoyl)-L-prolinal] as the compound, how does the IC50 read?
The IC50 was 230 nM.

With COc1ccc(CCCC(=O)N2CCC[C@H]2C=O)cc1 [N-[4-(4-methoxyphenyl)bu-tyryl]-L-prolinal, reference compound] as the compound, how does the IC50 read?
The IC50 was 21000 nM.

For CC(C)C(CCCCCc1ccccc1)C(=O)N1CCC[C@H]1C=O (stereo partly drawn) [1(b), N-(2-isopropyl-7-phenyl-heptanoyl)-L-prolinal], which IC50 is on record?
Its IC50 is 80 nM.

Which IC50 does the source give for CC(C)C(CCCCCCCCc1ccccc1)C(=O)N1CCC[C@H]1C=O (stereo partly drawn) [1(e), N-(2-isopropyl-10-phenyldecanoyl)-L-prolinal] here?
Its IC50 is 120 nM.

For O=C[C@@H]1CCCN1C(=O)[C@@H]1CCC[C@H]1CCCCc1ccccc1 (relative stereo) [Example 2, N-[DL-Trans-2-(4-Phenylbutyl)Cyclopentanecarbonyl] -L-prolinal], which IC50 is on record?
Its IC50 is 130 nM.

With CC(C)C(CCc1ccccc1)C(=O)N1CCC[C@H]1C=O (stereo partly drawn) [N-(2-isopropyl-4-phenyl-butyryl)-L-prolinal, reference compound] as the compound, how does the IC50 read?
Its IC50 is greater than 5000 nM.

Which IC50 does the source give for COc1ccc(CCCCCC(C(=O)N2CCC[C@H]2C=O)C(C)C)cc1 (some centres unmarked) here?
Its IC50 is 170 nM.

Which IC50 does the source give for CC(C)C(CCCCCCc1ccccc1)C(=O)N1CCC[C@H]1C=O (stereo partly drawn) [1(c), N-(2-isopropyl-8-phenyl-octanoyl)-L-prolinal] here?
Its IC50 is 190 nM.

Same assay, conditions: Table I, formula (Ia); purified from bovine brain; pH 7.5, 37° C.; read-out: Concentration for 50% inhibition IC50

Which IC50 does the source give for “N-[9-(4-phenylbutyl)cyclo-hexane carbonyl]-L-prolinal [2(a)]” here?
The IC50 was 430 nM.

Same assay, conditions: read-out: Concentration for 50% inhibition IC50; Table II, formula (Ib); purified from bovine brain; pH 7.5, 37° C.

Which IC50 does the source give for O=C[C@@H]1CCCN1C(=O)C(CCCCCc1ccccc1)c1ccccc1 (some centres unmarked) here?
The IC50 was 610 nM.

For O=C[C@@H]1CCCN1C(=O)C(CCCCc1ccccc1)C1CCCCC1 (some centres unmarked), which IC50 is on record?
Its IC50 is 690 nM.

Test system: prolyl endopeptidase
Experiment: not given
Conditions: literature; cited from earlier work

With O=C(NCC(=O)N1CCC[C@H]1C(=O)CCl)OCc1ccccc1 [N-benzyloxycarbonyl-glycyl-L-prolyl-chloromethane] (Cbz-Gly-Pro-CH2Cl) as the compound, how does the “inhibition of prolyl endopeptidase (in words)” value read?
The value was “strongly inhibit prolyl endopeptidase”.
